Measured values taken from the supplement of paper PMC3493320.

Tested on: NCI-H295R
Experiment: IC50 (antiproliferative, ATP content)
Details: 48 h
Method in brief: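 Compounds were pin-transferred at 8 final concentrations between 0.6 nM and 46 µM onto adrenocortical carcinoma cells (1500 per well, 1536-well plates) that had been cultured overnight in serum-free DMEM with ITS. Plates then stood 48 h at 37 °C, 5% CO2, and ATP was detected by CellTiter-Glo luminescence. IC50 was derived from logistic fits of normalised signal, and compounds giving no concentration response were noted as above the top dose.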

| Structure (SMILES) | IC50 |
| --- | --- |
| [O-][n+]1cccc(CO)c1 | > 46 µM |
| OC1=CC(\C=C(C#N)/C#N)=CC(O)=C1O | > 46 µM |
| C/C(=C(\CCOC(=O)C(C)C)SS/C(CCOC(=O)C(C)C)=C(/C)N(C=O)Cc1cnc(C)nc1N)N(C=O)Cc1cnc(C)nc1N | > 46 µM |
| CC[N+]1(C)CCCC(OC(=O)C(O)(c2ccccc2)c2ccccc2)C1.[Br-] (centres undefined) | > 46 µM |
| C#CCN(C)[C@H](C)Cc1ccccc1.Cl | > 46 µM |
| CC(=O)Nc1ccc(S(=O)(=O)Nc2ccc([N+](=O)[O-])cc2)cc1 | > 46 µM |
| CN1CCCCC1CCN1c2ccccc2Sc2ccc(S(C)=O)cc21 (centres undefined) | > 46 µM |
| Cl.Nc1cc(Cl)c(NC2=NCCN2)c(Cl)c1 | > 46 µM |
| COc1ccc2c3c1O[C@H]1C(=O)CC[C@H]4[C@@H](C2)N(C)CC[C@]314.COc1ccc2c3c1O[C@H]1C(=O)CC[C@H]4[C@@H](C2)N(C)CC[C@]314.O=P(O)(O)O.O=P(O)(O)O.O=P(O)(O)O | > 46 µM |
| CN(C)C/C=C(/c1ccc(Br)cc1)c1cccnc1.Cl.Cl.O | > 46 µM |
| CO/N=C(\C(=O)N[C@@H]1C(=O)N2C(C(=O)O)=C(CSC(=O)c3ccco3)CS[C@H]12)c1csc(N)n1 | > 46 µM |
| NC(=O)C1c2ccccc2CCc2ccccc21 | > 46 µM |
| O=C(O)CCC(=O)C(=O)O | > 46 µM |
| CC1=C(O[C@H](CCNC)[C@@]2=CC=CC=C2)C=CC=C1.Cl | > 46 µM |
| CS(=O)(=O)Nc1cc2\C=C(/Nc2cc1)C(=O)N3CCN(CC3)c4ncccc4NC(C)C | > 46 µM |
| NP(N)(=O)NC(=O)c1ccc(F)cc1 | > 46 µM |
| Nc1ccc(N)cc1 | > 46 µM |
| C[N+](C)(C)CCCCCCCCCC[N+](C)(C)C.[Br-].[Br-] | > 46 µM |
| O=C(O)COc1ccc(C(=O)c2cccs2)c(Cl)c1Cl | > 46 µM |
| CC(=C(CCO)SSC(CCO)=C(C)N(C=O)Cc1cnc(C)nc1N)N(C=O)Cc1cnc(C)nc1N | > 46 µM |
| O=C2N1[C@]([C@@]([H])2NC(C(CC)OC3=CC=CC=C3)=O)([H])SC(C)(C)[C@@H]1[C@@](O)=O (some centres undefined) | > 46 µM |
| CC(C)CCCC(C)CCCC(C)CCCCC(C)CCCC(C)CCCC(C)C (centres undefined) | > 46 µM |
| CCO[C@@H]1O[C@H](C(COCc2ccccc2)OCc2ccccc2)[C@H](OCc2ccccc2)[C@H]1O (some centres undefined) | > 46 µM |
| CC(=O)OCC(=O)[C@@]1(OC(C)=O)[C@@H](C)C[C@H]2[C@@H]3C[C@H](F)C4=CC(=O)C=C[C@]4(C)[C@@]3(F)[C@@H](O)C[C@@]21C | > 46 µM |
| COc1nc(C)nc(Cl)c1NC1=NCCN1 | > 46 µM |

| Structure (SMILES) | IC50 |
| --- | --- |
| Cc1cccc(Nc2ccncc2S(=O)(=O)NC(=O)NC(C)C)c1 | > 46 µM |
| Nc1ccc(C=Cc2ccc(N)cc2S(=O)(=O)O)c(S(=O)(=O)O)c1 | > 46 µM |
| O=[C@](N[C@H]2C[C@@H]2[C@]3=CC=CC=C3)[C@H]1NC(CC1)=O | > 46 µM |
| CC(=O)N[C@@H](CC(C)C)C(=O)O | > 46 µM |
| Cc1onc(-c2ccccc2Cl)c1C(=O)N[C@@H]1C(=O)N2[C@@H]1SC(C)(C)[C@@H]2C(=O)[O-].[Na+] | > 46 µM |
| Cc1oncc1C(=O)Nc1ccc(C(F)(F)F)cc1 | > 46 µM |
| COc1ccc2c(c1OC)CN1CCc3cc4c(cc3C1C2)OCO4 (centres undefined) | > 46 µM |
| CC12CCC(CC1)C(C)(C)O2 | > 46 µM |
| [O-][C@@]([C@@]13[C@@]([C@]2([H])OC(C)(C)OC[C@@]([H])2O3)([H])OC(C)(C)O1)=O.[Na+] | > 46 µM |
| C=CCN1C[C@H](C)N([C@H](c2ccc(C(=O)N(CC)CC)cc2)c2cccc(OC)c2)C[C@H]1C | > 46 µM |
| Cc1ncc(C[n+]2csc(CCOP(=O)(O)O)c2C)c(N)n1.[Cl-] | > 46 µM |
| CCOc1ccc(NC(=S)Nc2ccc(OCC)cc2)cc1 | > 46 µM |
| C#CCN(C)Cc1ccccc1.Cl | > 46 µM |
| CCCCCCCCCCCCCC(=O)OC(C)C | > 46 µM |
| CC(C)CN(C[C@@H](OP(=O)([O-])[O-])[C@H](Cc1ccccc1)NC(=O)O[C@H]1CCOC1)S(=O)(=O)c1ccc(N)cc1.[Ca+2] | > 46 µM |
| O.O=S(=O)([O-])CC(S)CS.[Na+] (centres undefined) | > 46 µM |
| Cc1ccc(-c2nc3ccc(C)cn3c2CC(=O)N(C)C)cc1 | > 46 µM |
| F\C1=C\N(C(=O)NC1=O)[C@@H]2O[C@H](C)[C@@H](O)[C@H]2O | > 46 µM |
| CCCc1c(OCCCCc2nnn[nH]2)ccc(C(C)=O)c1O | > 46 µM |
| CCCCCCCCCCCCCCCCCCOC[C@H](COP(=O)([O-])OCC[N+](C)(C)C)OC | > 46 µM |
| CCCc1cc(C(N)=S)ccn1 | > 46 µM |
| NC(=O)CC[C@@H](N)C(=O)O | > 46 µM |
| O=C(OCCOCCO)c1ccccc1Nc1cccc(C(F)(F)F)c1 | > 46 µM |
| COc1ccc(C[C@H](C)NC[C@@H](O)c2ccc(O)c(NC=O)c2)cc1.COc1ccc(C[C@H](C)NC[C@@H](O)c2ccc(O)c(NC=O)c2)cc1.O=C(O)/C=C/C(=O)O | > 46 µM |
| Cc1cc(O)c(C(C)C)cc1Cl | > 46 µM |

| Structure (SMILES) | IC50 |
| --- | --- |
| CC1=C(/C=C/C(C)=C/C=C/C(C)=C/C=C/C=C(C)/C=C/C=C(C)/C=C/C2=C(C)CCCC2(C)C)C(C)(C)CCC1 | > 46 µM |
| O=C(O)CCc1nc(-c2ccccc2)c(-c2ccccc2)o1 | > 46 µM |
| CC1=C2[C@H]3OC(=O)[C@@H](C)[C@@H]3CC[C@@]2(C)C=CC1=O | > 46 µM |
| Nc1ccc(S(N)(=O)=O)cc1 | > 46 µM |
| NC[C@H]1O[C@H](O[C@H]2[C@H](O[C@@H]3O[C@H](CO)[C@@H](O)[C@H]3O)C(O)[C@H](N)C[C@@H]2N)[C@H](N)[C@@H](O)[C@@H]1O.O=S(=O)(O)O (some centres undefined) | > 46 µM |
| NS(=O)(=O)c1cc(Cl)c(Cl)c(S(N)(=O)=O)c1 | > 46 µM |
| CC1=C(/C=C/C(C)=C/C=C/C(C)=C/C(=O)O)C(C)(C)CCC1 | > 46 µM |
| CCCCCCCCCCCCCCCCCCCCCCO | > 46 µM |
| O=C(O)c1ccccc1O.Oc1cccc2cccnc12 | > 46 µM |
| C#C[C@]1(O)CC[C@H]2[C@@H]3CCC4=CC(=O)CCC4=C3C=C[C@@]21CC | > 46 µM |
| CCn1cc(C(=O)O)c(=O)c2ccc(C)nc21 | > 46 µM |
| [C@@]2\1(\C(=C/C(/C=C/1)=O)CC[C@@H]4[C@@H]2CC[C@@]3([C@](O)(C)CC[C@H]34)C)C | > 46 µM |
| CCc1ccc(CCOc2ccc(CC3SC(=O)NC3=O)cc2)nc1.Cl (centres undefined) | > 46 µM |
| CC(C)C(Br)C(=O)NC(N)=O (centres undefined) | > 46 µM |
| CSc1ccc(C(=O)c2[nH]c(=O)[nH]c2C)cc1 | > 46 µM |
| O=C(CCNNC(=O)c1ccncc1)NCc1ccccc1 | > 46 µM |
| CCCCC(CC)COC(=O)C(C#N)=C(c1ccccc1)c1ccccc1 (centres undefined) | > 46 µM |
| CCCCCC[C@@H](O)C/C=C\CCCCCCCC(=O)[O-].[K+] | > 46 µM |
| NC(CS)C(=O)O (centres undefined) | > 46 µM |
| O=[C@](OCC2=COC(CC3=CC=CC=C3)=C2)[C@H]1C(C)(C)[C@@H]1\C=C(C)/C | > 46 µM |
| CO[C@@]1(NC(=O)C(C(=O)[O-])c2ccc(O)cc2)C(=O)N2C(C(=O)[O-])=C(CSc3nnnn3C)CO[C@@H]21.[Na+].[Na+] (some centres undefined) | > 46 µM |
| NCCc1cnc[nH]1 | > 46 µM |
| Cc1ccc(C)c(OCCCC(C)(C)C(=O)O)c1 | > 46 µM |
| Cc1ccc(S(=O)(=O)N[C@H](CCCCN)C(=O)CCl)cc1.Cl | > 46 µM |
| Cl.FC(F)(F)c1cccc(C2=CCN(CCc3ccc4ccccc4c3)CC2)c1 | > 46 µM |

| Structure (SMILES) | IC50 |
| --- | --- |
| CN/C(=N\C#N)NCCSCc1csc(N=C(N)N)n1 | > 46 µM |
| C=CCN=C=S | > 46 µM |
| CCCCCCCC/C=C\CCCCCCCCN | > 46 µM |
| CCCN(CCC)S(=O)(=O)c1ccc(C(=O)O)cc1 | > 46 µM |
| CNCCC(Oc1ccccc1OC)c1ccccc1 (centres undefined) | > 46 µM |
| C[N+]1(CCCCC[N+]2(C)CCCC2)CCCC1.O=C([O-])[C@H](O)[C@@H](O)C(=O)O.O=C([O-])[C@H](O)[C@@H](O)C(=O)O | > 46 µM |
| OB(O)O | > 46 µM |
| COc1c(O[C@@H]2O[C@H](CO)[C@@H](O)[C@H](O)[C@H]2O)cc2c(c1OC)-c1ccc(SC)c(=O)cc1[C@@H](NC(C)=O)CC2 | > 46 µM |
| Clc1ccc(Cl)cc1 | > 46 µM |
| CC(C)(C)c1ccc2c(S(=O)(=O)[O-])c(C(C)(C)C)ccc2c1.[Na+] | > 46 µM |
| CC/C=C\C/C=C\C/C=C\C/C=C\C/C=C\CCCC(=O)O | > 46 µM |
| CC1=C(C=C/C(C)=C/C=C/C(C)=C/CO)C(C)(C)CCC1 | > 46 µM |
| C#C[C@]1(O)CC[C@H]2[C@@H]3CCC4=CC(=O)CC[C@@H]4[C@H]3C(=C)C[C@@]21CC | > 46 µM |
| CN1[C@@H]2CC[C@@H]1CC(OC1c3ccccc3CCc3ccccc31)C2.O=C(O)CC(O)(CC(=O)O)C(=O)O (some centres undefined) | > 46 µM |
| O=C(CCCN1CCC(O)(c2ccc(Br)cc2)CC1)c1ccc(F)cc1 | > 46 µM |
| C[C@H](C(=O)[O-])c1cccc(Oc2ccccc2)c1.C[C@H](C(=O)[O-])c1cccc(Oc2ccccc2)c1.O.O.[Ca+2] | > 46 µM |
| O=[C@](CO)[C@@H]2[C@](CC1)(C)[C@](CC2)([H])[C@@](CC4)([H])[C@@]1([H])[C@](CC3)(C)C4=CC3=O | > 46 µM |
| NCC[C@H](O)C(=O)N[C@@H]1C[C@H](N)[C@@H](O[C@H]2O[C@H](CN)[C@@H](O)[C@H](O)[C@H]2O)[C@H](O)[C@H]1O[C@H]1O[C@H](CO)[C@@H](O)[C@H](N)[C@H]1O | > 46 µM |
| CC(CN(C)C)C(C)(O)Cc1ccc(Cl)cc1.Cl (centres undefined) | > 46 µM |
| [Na+].[O-]Cl | > 46 µM |
| CC(C)(Oc1ccc(C2CCCc3ccccc32)cc1)C(=O)O (centres undefined) | > 46 µM |
| O=C1[O][Bi]([OH])[O]c2ccccc21 | > 46 µM |
| CC(NC(C)(C)C)C(=O)c1cccc(Cl)c1.Cl (centres undefined) | > 46 µM |
| CC[n+]1c(-c2ccccc2)c2cc(N)ccc2c2ccc(N)cc21.[Br-] | > 46 µM |
